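Where inhibition never reached the appropriate level, the endpoint shown equals the highest concentration tested. Otherwise, values were interpolated linearly from a five-concentration, 48-hour dose response in 96-well plates. GI50: concentration for 50% inhibition of growth.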 Activity calls are given as the source filed them. Cut-off read from the data, not from the text of the source: active = GI50 up to about 1.1 µM and inactive = higher.
Experiments:
Assay in all cases: DTP human tumour cell line panel, 48 h
NCI-H522 = tested on: NCI-H522
A498 = tested on: A498
UACC-62 = tested on: UACC-62
HOP-62 = tested on: HOP-62
NCI-H460 = tested on: NCI-H460
CAKI-1 = tested on: CAKI-1
BT-549 = tested on: BT-549
IGROV-1 = tested on: IGROV-1
NCI-H23 = tested on: NCI-H23
K562 = tested on: K562
LOX IMVI = tested on: LOX IMVI
MDA-N = tested on: MDA-N
SF-295 = tested on: SF-295
SK-MEL-5 = tested on: SK-MEL-5
DU-145 = tested on: DU-145
HOP-92 = tested on: HOP-92
TK-10 = tested on: TK-10
U-251 = tested on: U-251
MOLT-4 = tested on: MOLT-4
RPMI-8226 = tested on: RPMI-8226
COLO 205 = tested on: COLO 205
SW-620 = tested on: SW-620
786-0 = tested on: 786-0
SF-268 = tested on: SF-268
KM12 = tested on: KM12
NCI/ADR-RES = tested on: NCI/ADR-RES
NCI-H226 = tested on: NCI-H226
MDA-MB-231 = tested on: MDA-MB-231
UACC-257 = tested on: UACC-257
Hs-578T = tested on: Hs-578T
ACHN = tested on: ACHN
SK-MEL-2 = tested on: SK-MEL-2
OVCAR-8 = tested on: OVCAR-8
SK-MEL-28 = tested on: SK-MEL-28
A549 = tested on: A549
SR = tested on: SR
PC-3 = tested on: PC-3
EKVX = tested on: EKVX
RXF 393 = tested on: RXF 393
SNB-19 = tested on: SNB-19
T47D = tested on: T47D
HT-29 = tested on: HT-29
CCRF-CEM = tested on: CCRF-CEM
MCF7 = tested on: MCF7
HL-60 = tested on: HL-60
SF-539 = tested on: SF-539
SN12C = tested on: SN12C
M14 = tested on: M14
HCT-15 = tested on: HCT-15
OVCAR-5 = tested on: OVCAR-5
UO-31 = tested on: UO-31
Malme-3M = tested on: Malme-3M
SK-OV-3 = tested on: SK-OV-3
OVCAR-4 = tested on: OVCAR-4
OVCAR-3 = tested on: OVCAR-3
MDA-MB-435 = tested on: MDA-MB-435
HCC 2998 = tested on: HCC 2998
SNB-75 = tested on: SNB-75
HCT-116 = tested on: HCT-116
DLD-1 = tested on: DLD-1
SNB-78 = tested on: SNB-78
LXFL 529 = tested on: LXFL 529
DMS-273 = tested on: DMS-273
KM-20L2 = tested on: KM-20L2
DMS-114 = tested on: DMS-114
M19-MEL = tested on: M19-MEL

In the case of `COCOC1/C=C/CCCCC2=C(C)C=C(C1)O2` (centres undefined), the GI50 (NCI-H522) is reported as > 100 µM (inactive), the GI50 (A498) is reported as > 100 µM (inactive) and the GI50 (UACC-62) is reported as > 100 µM (inactive). The GI50 (HOP-62) was > 100 µM (inactive), the GI50 (NCI-H460) was > 100 µM (inactive) and the GI50 (CAKI-1) was > 100 µM (inactive). The GI50 (BT-549) was > 100 µM (inactive), the GI50 (IGROV-1) was > 100 µM (inactive) and the GI50 (NCI-H23) was > 100 µM (inactive). The GI50 (K562) was > 100 µM (inactive), the GI50 (LOX IMVI) was > 100 µM (inactive) and the GI50 (MDA-N) was > 100 µM (inactive). For the same compound, the GI50 (SF-295) was > 100 µM (inactive), the GI50 (SK-MEL-5) was > 100 µM (inactive) and the GI50 (DU-145) was > 100 µM (inactive). The GI50 (HOP-92) was > 100 µM (inactive), the GI50 (TK-10) was > 100 µM (inactive) and the GI50 (U-251) was > 100 µM (inactive). For the same compound, the GI50 (MOLT-4) was > 100 µM (inactive), the GI50 (RPMI-8226) was > 100 µM (inactive) and the GI50 (COLO 205) was > 100 µM (inactive). The GI50 (SW-620) was > 100 µM (inactive), the GI50 (786-0) was > 100 µM (inactive) and the GI50 (SF-268) was > 100 µM (inactive). The GI50 (KM12) was > 100 µM (inactive), the GI50 (NCI/ADR-RES) was > 100 µM (inactive) and the GI50 (NCI-H226) was > 100 µM (inactive). The GI50 (MDA-MB-231) was > 100 µM (inactive), the GI50 (UACC-257) was > 100 µM (inactive) and the GI50 (Hs-578T) was > 100 µM (inactive). The GI50 (ACHN) was > 100 µM (inactive), the GI50 (SK-MEL-2) was > 100 µM (inactive) and the GI50 (OVCAR-8) was > 100 µM (inactive). For the same compound, the GI50 (SK-MEL-28) was > 100 µM (inactive), the GI50 (A549) was > 100 µM (inactive) and the GI50 (SR) was > 100 µM (inactive). For the same compound, the GI50 (PC-3) was > 100 µM (inactive), the GI50 (EKVX) was > 100 µM (inactive) and the GI50 (RXF 393) was > 100 µM (inactive). For the same compound, the GI50 (SNB-19) was > 100 µM (inactive), the GI50 (T47D) was > 100 µM (inactive) and the GI50 (HT-29) was > 100 µM (inactive). For the same compound, the GI50 (CCRF-CEM) was > 100 µM (inactive), the GI50 (MCF7) was > 100 µM (inactive) and the GI50 (HL-60) was 45.4 µM (inactive). For the same compound, the GI50 (SF-539) was > 100 µM (inactive), the GI50 (SN12C) was > 100 µM (inactive) and the GI50 (M14) was > 100 µM (inactive). The GI50 (HCT-15) was greater than 100 µM, the GI50 (OVCAR-5) was > 100 µM (inactive) and the GI50 (UO-31) was > 100 µM (inactive). The GI50 (Malme-3M) was > 100 µM (inactive), the GI50 (SK-OV-3) was > 100 µM (inactive) and the GI50 (OVCAR-4) was > 100 µM (inactive). The GI50 (OVCAR-3) was > 100 µM (inactive), the GI50 (MDA-MB-435) was > 100 µM (inactive) and the GI50 (HCC 2998) was > 100 µM (inactive). For the same compound, the GI50 (SNB-75) was > 100 µM (inactive) and the GI50 (HCT-116) was > 100 µM (inactive).
In the case of `CC1CCC(=O)NCCCCC(=O)N1` (centres undefined), the GI50 (NCI-H522) is reported as > 100 µM (inactive), the GI50 (A498) is reported as > 100 µM (inactive) and the GI50 (UACC-62) is reported as > 100 µM (inactive). The GI50 (HOP-62) was > 100 µM (inactive), the GI50 (NCI-H460) was > 100 µM (inactive) and the GI50 (CAKI-1) was > 100 µM (inactive). For the same compound, the GI50 (DLD-1) was > 100 µM (inactive), the GI50 (IGROV-1) was > 100 µM (inactive) and the GI50 (NCI-H23) was > 100 µM (inactive). The GI50 (K562) was > 100 µM (inactive), the GI50 (LOX IMVI) was > 100 µM (inactive) and the GI50 (SF-295) was > 100 µM (inactive). For the same compound, the GI50 (SK-MEL-5) was > 100 µM (inactive), the GI50 (HOP-92) was > 100 µM (inactive) and the GI50 (TK-10) was > 100 µM (inactive). The GI50 (SNB-78) was > 100 µM (inactive), the GI50 (U-251) was > 100 µM (inactive) and the GI50 (MOLT-4) was > 100 µM (inactive). For the same compound, the GI50 (RPMI-8226) was > 100 µM (inactive), the GI50 (COLO 205) was > 100 µM (inactive) and the GI50 (SW-620) was > 100 µM (inactive). For the same compound, the GI50 (786-0) was > 100 µM (inactive), the GI50 (SF-268) was > 100 µM (inactive) and the GI50 (KM12) was > 100 µM (inactive). The GI50 (NCI-H226) was > 100 µM (inactive), the GI50 (UACC-257) was > 100 µM (inactive) and the GI50 (ACHN) was > 100 µM (inactive). For the same compound, the GI50 (LXFL 529) was > 100 µM (inactive), the GI50 (DMS-273) was > 100 µM (inactive) and the GI50 (SK-MEL-2) was > 100 µM (inactive). The GI50 (OVCAR-8) was > 100 µM (inactive), the GI50 (SK-MEL-28) was > 100 µM (inactive) and the GI50 (A549) was > 100 µM (inactive). For the same compound, the GI50 (SR) was > 100 µM (inactive), the GI50 (KM-20L2) was > 100 µM (inactive) and the GI50 (EKVX) was > 100 µM (inactive). The GI50 (RXF 393) was > 100 µM (inactive), the GI50 (SNB-19) was > 100 µM (inactive) and the GI50 (HT-29) was > 100 µM (inactive). For the same compound, the GI50 (CCRF-CEM) was > 100 µM (inactive), the GI50 (HL-60) was > 100 µM (inactive) and the GI50 (SF-539) was > 100 µM (inactive). For the same compound, the GI50 (SN12C) was > 100 µM (inactive), the GI50 (M14) was > 100 µM (inactive) and the GI50 (OVCAR-5) was > 100 µM (inactive). For the same compound, the GI50 (UO-31) was > 100 µM (inactive), the GI50 (Malme-3M) was > 100 µM (inactive) and the GI50 (SK-OV-3) was > 100 µM (inactive). The GI50 (OVCAR-4) was > 100 µM (inactive), the GI50 (OVCAR-3) was > 100 µM (inactive) and the GI50 (HCC 2998) was > 100 µM (inactive). For the same compound, the GI50 (SNB-75) was 43.3 µM (inactive), the GI50 (HCT-116) was > 100 µM (inactive) and the GI50 (DMS-114) was > 100 µM (inactive). For the same compound, the GI50 (M19-MEL) was > 100 µM (inactive).

— ChEMBL document CHEMBL1201862, “PubChem BioAssay data set” (2004)
